According to publication PMC12311865, “In Vitro Evaluation of the Potential Interactions of Zearalenone-14-sulfate and Zearalenone-14-glucuronide with Human Cytochrome P450 Enzymes, Organic Anion Transporting Polypeptides, and ATP-Binding Cassette Multidrug Transporters” (ACS Omega, 2025):

Assays:
[1] = molecular target: T1, CYP2C9 (Homo sapiens, UniProt P11712); assay: in vitro; type: biochemical; conditions: human, pH 7.5
T1 construct: purchased Merck
Description: Inhibitory actions of ZEN conjugates on CYP2C9 and CYP3A4 enzymes were examined employing CypExpress Cytochrome P450 human kits. , Briefly, incubates (200 μL) contained the substrate (5 μM; diclofenac for CYP2C9 and testosterone for CYP3A4), the CypExpress reagent (6 mg/mL of CYP2C9 kit or 15 mg/mL of CYP3A4 kit; also including the glucose-6-phosphate dehydrogenase enzyme), and the test compounds (each 20 μM) in 0.05 M potassium phosphate buffer (pH 7.5). CYP3A4 assay was supplemented with additional G6P and NADP^+ (both 400 μM). Enzyme assays were started with the addition of the enzyme. After 120 min (CYP2C9) or 180 min (CYP3A4) incubation at 700 rpm and 30 °C in a thermomixer, the reaction was stopped with 100 μL of ice-cold methanol. Then, the samples were centrifuged for 10 min at 14,000g and room temperature. The supernatants were gently removed and directly analyzed by HPLC (see Section ).
Diclofenac and 4′-hydroxydiclofenac (CYP2C9 assay) were quantified using the previously reported HPLC-UV assay, , without modification. Briefly, the isocratic elution, with 1.0 mL/min flow rate, was performed with orthophosphoric acid (6 mM) and acetonitrile (48:52 v/v %) mobile phase, applying a Security Guard (C8, 4.0 × 3.0 mm; Phenomenex, Torrance, CA) precolumn and a Mediterranea Sea8 (C8, 150 × 4.6 mm, 5 μm; Teknokroma, Barcelona, Spain) analytical column at room temperature (injected volume: 20 μL). Diclofenac and 4′-hydroxydiclofenac were detected at 275 nm.

[2] = molecular target: T2, MDR1 (Homo sapiens, UniProt P08183); assay: MDR1-mediated NMQ vesicular transport (Sf9 membrane vesicles); type: biochemical; conditions: human; 30 μM; NMQ 5 μM; read-out: inhibition of MDR1-mediated, ATP-dependent uptake of NMQ
T2 construct: made in house; host or cells: Sf9 insect cells (baculovirus)
Description: Experiments were performed in insect membrane vesicles, as described previously. Briefly, human MDR1, BCRP, and MRP2 were expressed in Sf9 insect cells by baculoviruses. On the third day of infection, cells were collected and membrane vesicles were obtained by mechanical disruption and differential centrifugation. To get full activity for BCRP, the cholesterol levels of the vesicles were adjusted to the level of mammalian membranes. Vesicles were stored at −80 °C, and the total protein content of the preparations was measured by the Lowry method (used as a reference for the quantity). […] A 100 μL volume of fluorescence stabilizer was added to the samples (DMSO for LY, 0.1 M H2SO4 for NMQ, and 0.1 M NaOH for CDCF). Fluorescence of samples was measured by plate readers (Victor X3 and Enspire PerkinElmer; Waltham, MA) at appropriate wavelengths (filters in the Victor X3 reader were 405/535 nm for LY and 492/635 nm for CDCF; while in the Enspire reader, NMQ was measured at 360/430 nm excitation/emission wavelengths). ABC-related transport was calculated by subtracting passive uptake measured without Mg-ATP from values measured in the presence of Mg-ATP.

T2 sequence (P08183 whole entry): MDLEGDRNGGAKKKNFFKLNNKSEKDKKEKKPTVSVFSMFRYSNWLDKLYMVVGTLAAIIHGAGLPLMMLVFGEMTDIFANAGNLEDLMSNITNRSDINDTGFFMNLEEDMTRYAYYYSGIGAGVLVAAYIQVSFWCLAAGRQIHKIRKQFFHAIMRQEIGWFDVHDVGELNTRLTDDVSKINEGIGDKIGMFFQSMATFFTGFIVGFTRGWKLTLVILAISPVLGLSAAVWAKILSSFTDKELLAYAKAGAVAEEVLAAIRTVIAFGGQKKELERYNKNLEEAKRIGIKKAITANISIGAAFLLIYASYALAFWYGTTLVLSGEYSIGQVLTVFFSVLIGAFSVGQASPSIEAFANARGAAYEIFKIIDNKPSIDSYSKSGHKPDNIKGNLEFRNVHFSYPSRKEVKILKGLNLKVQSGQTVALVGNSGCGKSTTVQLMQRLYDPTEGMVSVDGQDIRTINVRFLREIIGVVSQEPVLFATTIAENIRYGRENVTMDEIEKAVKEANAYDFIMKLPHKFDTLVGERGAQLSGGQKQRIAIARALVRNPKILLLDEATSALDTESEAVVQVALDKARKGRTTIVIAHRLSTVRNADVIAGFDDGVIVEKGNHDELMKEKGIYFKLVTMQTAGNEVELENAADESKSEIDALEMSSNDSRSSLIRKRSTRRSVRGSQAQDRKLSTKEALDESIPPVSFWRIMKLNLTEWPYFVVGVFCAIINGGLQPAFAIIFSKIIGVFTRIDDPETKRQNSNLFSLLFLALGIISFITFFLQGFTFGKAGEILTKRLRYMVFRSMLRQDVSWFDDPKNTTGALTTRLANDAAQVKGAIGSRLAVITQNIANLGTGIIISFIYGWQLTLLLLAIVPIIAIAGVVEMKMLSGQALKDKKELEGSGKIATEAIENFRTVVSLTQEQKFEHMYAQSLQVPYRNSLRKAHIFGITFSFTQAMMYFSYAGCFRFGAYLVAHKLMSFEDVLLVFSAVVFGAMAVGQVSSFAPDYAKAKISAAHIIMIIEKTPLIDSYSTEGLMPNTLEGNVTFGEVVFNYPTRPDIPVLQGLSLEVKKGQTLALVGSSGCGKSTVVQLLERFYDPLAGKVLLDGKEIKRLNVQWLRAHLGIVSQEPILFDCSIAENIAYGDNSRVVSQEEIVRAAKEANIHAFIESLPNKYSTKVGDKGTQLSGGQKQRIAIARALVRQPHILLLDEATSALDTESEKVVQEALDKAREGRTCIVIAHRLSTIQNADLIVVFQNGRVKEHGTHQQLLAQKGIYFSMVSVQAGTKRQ
T1 sequence (P11712 whole entry): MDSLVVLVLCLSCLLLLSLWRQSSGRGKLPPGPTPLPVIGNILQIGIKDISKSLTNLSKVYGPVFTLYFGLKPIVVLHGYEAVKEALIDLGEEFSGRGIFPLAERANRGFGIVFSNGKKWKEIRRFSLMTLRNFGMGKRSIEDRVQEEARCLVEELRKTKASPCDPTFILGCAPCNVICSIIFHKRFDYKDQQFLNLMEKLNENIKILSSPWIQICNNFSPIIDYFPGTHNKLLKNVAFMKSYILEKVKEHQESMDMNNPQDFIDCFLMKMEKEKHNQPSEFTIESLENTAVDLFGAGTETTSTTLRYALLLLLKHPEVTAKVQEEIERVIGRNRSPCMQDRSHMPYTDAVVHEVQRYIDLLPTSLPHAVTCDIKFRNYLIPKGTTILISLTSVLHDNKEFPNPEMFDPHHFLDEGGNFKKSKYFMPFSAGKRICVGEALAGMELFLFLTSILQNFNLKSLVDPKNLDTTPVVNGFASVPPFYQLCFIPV

Row | Structure (SMILES) | inhibition of CYP2C9 (decrease in metabolite formation) [1] | inhibition at 10 min, 30 μM [2] [%]
1 | Nc1ccc(S(=O)(=O)Nc2ccnn2-c2ccccc2)cc1 [sulfaphenazole, reference compound] | more than 90% | 
2 | COc1ccc(CCN(C)CCCC(C#N)(c2ccc(OC)c(OC)c2)C(C)C)cc1OC (centres unmarked) [verapamil, reference compound] |  | 97
